Results published in PubChem BioAssay AID248 (DTP/NCI, 2004).
Several values for one entry are separate records, joined by “and”; a condition that tells them apart may be missing. Identical values can stand only once. Inconclusive results and toxic doses are left out. No stated cut-off is given here; in the data, active means T/C of 150% or more; inactive means T/C below 125%.

Tested on: L1210 leukemia ip in BDF1 mice, survival T/C
Assay: NCI In Vivo Anticancer Drug Screen. Data for tumor model L1210 Leukemia (intraperitoneal) in B6D2F1 (BDF1) mice
Details: endpoint: mean survival time, higher = longer survival
Procedure, shortened: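 Antitumor effect is assessed in tumor-bearing animals. Survival in the compound arm is compared with a vehicle-dosed control arm and expressed as their quotient.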

[1] = dose: 100.0 mg/kg/injection, schedule: Q01DX009 (ip), vehicle: saline with Tween-80
[2] = dose: 100.0 mg/kg/injection, schedule: Q04DX003 (ip), vehicle: saline with Tween-80
[3] = dose: 200.0 mg/kg/injection, schedule: Q01DX009 (ip), vehicle: saline with Tween-80
[4] = dose: 400.0 mg/kg/injection, schedule: Q04DX003 (ip), vehicle: saline with Tween-80
[5] = dose: 100.0 mg/kg/injection, schedule: Q01DX009 (ip), vehicle: Klucel (hydroxypropylcellulose) (HPC)
[6] = dose: 100.0 mg/kg/injection, schedule: Q04DX003 (ip), vehicle: Klucel (hydroxypropylcellulose) (HPC)
[7] = dose: 200.0 mg/kg/injection, schedule: Q04DX003 (ip), vehicle: Klucel (hydroxypropylcellulose) (HPC)
[8] = dose: 25.0 mg/kg/injection, schedule: Q01DX009 (ip), vehicle: Klucel (hydroxypropylcellulose) (HPC)
[9] = dose: 50.0 mg/kg/injection, schedule: Q04DX003 (ip), vehicle: Klucel (hydroxypropylcellulose) (HPC)
[10] = dose: 100.0 mg/kg/injection, schedule: Q01DX001 (ip), vehicle: saline
[11] = dose: 200.0 mg/kg/injection, schedule: Q01DX001 (ip), vehicle: saline
[12] = dose: 400.0 mg/kg/injection, schedule: Q01DX001 (ip), vehicle: saline
[13] = dose: 100.0 mg/kg/injection, schedule: Q01DX001 (ip), vehicle: carboxymethylcellulose (CMC)
[14] = dose: 200.0 mg/kg/injection, schedule: Q01DX001 (ip), vehicle: carboxymethylcellulose (CMC)
[15] = dose: 400.0 mg/kg/injection, schedule: Q01DX001 (ip), vehicle: carboxymethylcellulose (CMC)

Measured: T/C

Oc1cccnc1CN1CCOCC1
inactive: [1] 96 % of control | [2] 97 % of control | [3] 89 % of control | dose: 200.0 mg/kg/injection, schedule: Q04DX003 (ip), vehicle: saline with Tween-80 108 % of control | dose: 400.0 mg/kg/injection, schedule: Q01DX009 (ip), vehicle: saline with Tween-80 96 % of control | [4] 100 % of control

CCCCCCCCCCCN1C(=O)c2ccccc2S1(=O)=O
inactive: dose: 222.0 mg/kg/injection, schedule: Q01DX Z (ip), vehicle: methylcellulose (MC) 91 % of control | dose: 333.0 mg/kg/injection, schedule: Q01DX Z (ip), vehicle: methylcellulose (MC) 105 % of control | dose: 500.0 mg/kg/injection, schedule: Q01DX Z (ip), vehicle: methylcellulose (MC) 102 % of control

OC1CCCC2CCCNC12 (stereo not given) (tested in a mixture with another compound)
inactive: [5] 105 % of control | [6] 93 % of control | dose: 200.0 mg/kg/injection, schedule: Q01DX009 (ip), vehicle: Klucel (hydroxypropylcellulose) (HPC) 95 % of control | [7] 105 % of control | dose: 400.0 mg/kg/injection, schedule: Q01DX009 (ip), vehicle: Klucel (hydroxypropylcellulose) (HPC) 90 % of control | dose: 400.0 mg/kg/injection, schedule: Q04DX003 (ip), vehicle: Klucel (hydroxypropylcellulose) (HPC) 89 % of control

COc1ccccc1N1CCN(CCc2c[nH]c3cc4c(cc23)OCO4)CC1
inactive: dose: 3.12 mg/kg/injection, schedule: Q01DX009 (ip), vehicle: Klucel (hydroxypropylcellulose) (HPC) 103 % of control | dose: 6.25 mg/kg/injection, schedule: Q01DX009 (ip), vehicle: Klucel (hydroxypropylcellulose) (HPC) 97 % of control and 110 % of control | dose: 12.5 mg/kg/injection, schedule: Q01DX009 (ip), vehicle: Klucel (hydroxypropylcellulose) (HPC) 106 % of control and 111 % of control and 120 % of control | dose: 12.5 mg/kg/injection, schedule: Q04DX003 (ip), vehicle: Klucel (hydroxypropylcellulose) (HPC) 94 % of control | [8] 89 % of control | dose: 25.0 mg/kg/injection, schedule: Q01DX015 (ip), vehicle: carboxymethylcellulose (CMC) 102 % of control and 106 % of control | dose: 25.0 mg/kg/injection, schedule: Q04DX003 (ip), vehicle: Klucel (hydroxypropylcellulose) (HPC) 102 % of control | dose: 50.0 mg/kg/injection, schedule: Q01DX015 (ip), vehicle: carboxymethylcellulose (CMC) 104 % of control | [9] 105 % of control | [5] 112 % of control | dose: 100.0 mg/kg/injection, schedule: Q01DX015 (ip), vehicle: carboxymethylcellulose (CMC) 118 % of control | [6] 102 % of control

Oc1ccc2ccccc2c1C(c1ccccc1)N1CCOCC1 (stereo not given)
inactive: dose: 100.0 mg/kg/injection, schedule: Q04DX002 (ip), vehicle: Klucel (hydroxypropylcellulose) (HPC) 88 % of control | dose: 200.0 mg/kg/injection, schedule: Q04DX002 (ip), vehicle: Klucel (hydroxypropylcellulose) (HPC) 88 % of control | dose: 400.0 mg/kg/injection, schedule: Q04DX002 (ip), vehicle: Klucel (hydroxypropylcellulose) (HPC) 101 % of control

O=C(O)/C=C\C(=O)Nc1nc(NC(=O)/C=C/C(=O)O)cc(=O)[nH]1
inactive: [10] 97 % of control | [11] 100 % of control | [12] 103 % of control

Cc1ccc(NC(=O)OCCOc2ccc(Cl)cc2Cl)cc1[N+](=O)[O-]
inactive: dose: 50.0 mg/kg/injection, schedule: Q01DX009 (ip), vehicle: saline with Tween-80 97 % of control | [1] 104 % of control | [3] 104 % of control

O=C(O)CC(C(=O)O)C1CCCC1 (stereo not given)
inactive: dose: 75.0 mg/kg/injection, schedule: Q01DX001 (ip), vehicle: saline 102 % of control | dose: 150.0 mg/kg/injection, schedule: Q01DX001 (ip), vehicle: saline 94 % of control | dose: 300.0 mg/kg/injection, schedule: Q01DX001 (ip), vehicle: saline 92 % of control

C=CCOCC1CO1 (stereo not given)
inactive: dose: 75.0 mg/kg/injection, schedule: Q01DX001 (ip), vehicle: acetone 101 % of control | dose: 150.0 mg/kg/injection, schedule: Q01DX001 (ip), vehicle: acetone 97 % of control | dose: 300.0 mg/kg/injection, schedule: Q01DX001 (ip), vehicle: acetone 105 % of control

O=C(OCCl)c1ccc(Cl)cc1Cl
inactive: [2] 87 % of control | [4] 88 % of control

O=NN(C(=O)c1ccccc1)C(c1ccccc1)c1ccc(Cl)cc1 (stereo not given)
inactive: dose: 45.0 mg/kg/injection, schedule: Q04DX002 (ip), vehicle: Klucel (hydroxypropylcellulose) (HPC) 91 % of control | dose: 90.0 mg/kg/injection, schedule: Q04DX002 (ip), vehicle: Klucel (hydroxypropylcellulose) (HPC) 91 % of control | dose: 180.0 mg/kg/injection, schedule: Q04DX002 (ip), vehicle: Klucel (hydroxypropylcellulose) (HPC) 97 % of control

ClCCN(CCCCCCN(CCCl)Cc1ccccc1)Cc1ccccc1
inactive: dose: 2.5 mg/kg/injection, schedule: Q04DX002 (ip), vehicle: Klucel (hydroxypropylcellulose) (HPC) 104 % of control | dose: 5.0 mg/kg/injection, schedule: Q04DX002 (ip), vehicle: Klucel (hydroxypropylcellulose) (HPC) 100 % of control

CCCCCCCCc1ccc(O)c(Cl)c1
inactive: [1] 95 % of control | [3] 96 % of control

COc1ccc2c(c1OC)C(=O)O[C@@H]2[C@H]1c2c(cc3c(c2OC)OCO3)CCN1C
inactive: dose: 31.3 mg/kg/injection, schedule: Q01DX009 (ip), vehicle: saline 95 % of control and 100 % of control (2×) | dose: 50.0 mg/kg/injection, schedule: Q01DX001 (ip), vehicle: saline 96 % of control | dose: 62.5 mg/kg/injection, schedule: Q01DX009 (ip), vehicle: saline 94 % of control and 100 % of control (2×) | [10] 102 % of control | dose: 125.0 mg/kg/injection, schedule: Q01DX009 (ip), vehicle: saline 96 % of control and 97 % of control and 91 % of control | [11] 107 % of control | dose: 250.0 mg/kg/injection, schedule: Q01DX009 (ip), vehicle: saline 102 % of control and 104 % of control and 91 % of control | [12] 111 % of control

CC(=O)Nc1cccc2c1Cc1cc([N+](=O)[O-])ccc1-2
inactive: [9] 93 % of control | [13] 92 % of control | [6] 93 % of control | [14] 92 % of control | [7] 94 % of control | [15] 87 % of control

N#CCCN1CCCSC1=S
inactive: dose: 75.0 mg/kg/injection, schedule: Q01DX001 (ip), vehicle: other 109 % of control | dose: 150.0 mg/kg/injection, schedule: Q01DX001 (ip), vehicle: other 115 % of control | dose: 300.0 mg/kg/injection, schedule: Q01DX001 (ip), vehicle: other 113 % of control

CCN(CC)CCN(C(=O)Cc1cccc2ccccc12)c1ccccc1N
inactive: dose: 19.0 mg/kg/injection, schedule: Q04DX003 (ip), vehicle: acid diluted with saline 94 % of control | dose: 38.0 mg/kg/injection, schedule: Q04DX003 (ip), vehicle: acid diluted with saline 102 % of control | dose: 75.0 mg/kg/injection, schedule: Q01DX001 (ip), vehicle: acid diluted with saline 105 % of control | dose: 75.0 mg/kg/injection, schedule: Q04DX003 (ip), vehicle: acid diluted with saline 100 % of control

CCC(=N\N=C(N)N)/C(C)=N\N=C(N)N
inactive: dose: 15.0 mg/kg/injection, schedule: Q01DX Z (ip), vehicle: saline 93 % of control | dose: 30.0 mg/kg/injection, schedule: Q01DX Z (ip), vehicle: saline 98 % of control | dose: 120.0 mg/kg/injection, schedule: Q01DX Z (ip), vehicle: saline 121 % of control

CCN(CC)C(=S)SC(=S)N(CC)CC
inactive: dose: 100.0 mg/kg/injection, schedule: Q04DX002 (ip), vehicle: gum acacia 103 % of control | dose: 200.0 mg/kg/injection, schedule: Q04DX002 (ip), vehicle: gum acacia 103 % of control | dose: 400.0 mg/kg/injection, schedule: Q04DX002 (ip), vehicle: gum acacia 89 % of control

Cc1ccc(N2C(=O)CCC2=O)c(C)c1
inactive: dose: 50.0 mg/kg/injection, schedule: Q01DX001 (ip), vehicle: carboxymethylcellulose (CMC) 104 % of control | [13] 98 % of control | [14] 102 % of control | [15] 98 % of control

COc1ccc(OC)c(NC(=O)Sc2ccccc2O)c1
inactive: [8] 100 % of control | dose: 50.0 mg/kg/injection, schedule: Q01DX009 (ip), vehicle: Klucel (hydroxypropylcellulose) (HPC) 96 % of control | [5] 99 % of control and 89 % of control
